Laboratory results taken from patent US7842721B2, “Composition for treating cancer cells and synthetic method for the same” (Kaohsiung Medical University, priority 2007, dated 2010).
≈ marks a conversion by molar mass, not a printed value.

Legend:
HepG2 = test: MTT cytotoxicity assay, HepG2; assay type: cell-based, Human; conditions: for IC50 HepG2: human liver cancer cells, MTT, 72 hrs treatment
Method: (§1) Human liver (HepG2 and Hep3B), breast (MCF-7 and MDA-MB-231), and lung (A549) cancer cell lines were propagated in RPMI-1640 medium supplement with 10% (v/v) FBS, 100 U/mL penicillin and 100 µg/mL streptomycin at 37° C. in a humidified atmosphere of 5% CO2 and 95% air. The culturing medium is changed every three days. Upon confluency, cells were subcultured to confluency, and used for experiments. The experimental period is determined according to the aim of experiment.
(§2) Cytotoxicity is measured by the MTT calorimetric method. Cells were seeded at densities of 5,000-10,000 cells/well in 96-well tissue culture plates. On day two, cells are treated with test compounds for another 72 hrs. After drug treatment, attached cells were incubated with MTT (0.5 mg/mL) for 1 hr and subsequently solubilized in DMSO. The absorbency at 550 nm is then measured using a microplate reader. The IC50 is the concentration of agent that reduces the cell viability by 50% under the experimental conditions, and the cytotoxic compound, Doxorubicin, is used as a positive control.

Hep3B = test: MTT cytotoxicity assay, Hep3B; assay type: cell-based; conditions: human liver cancer cells, 72 hrs treatment
Method: as §1, §2

MDA-MB-231 = test: MTT cytotoxicity assay, MDA-MB-231; assay type: cell-based; conditions: human breast cancer cells, 72 hrs treatment
Method: as §1, §2

MCF-7 = test: MTT cytotoxicity assay, MCF-7; assay type: cell-based; conditions: human breast cancer cells, 72 hrs treatment
Method: as §1, §2

A549 = test: MTT cytotoxicity assay, A549; assay type: cell-based; conditions: human lung cancer cells, 72 hrs treatment
Method: as §1, §2

human cancer cell lines = test: in vitro cytotoxic activities against several human cancer lines (panel summary); assay type: cell-based; conditions: for cytotoxic activity against cancer cell lines (in words): especially Hep3B and MDA-MB-231
Method: as §1, §2
It is known that both the protoapigenone compound and its derivatives synthesized by a chemical method have cytotoxic effect against cancer cells, similar to nature protoapigenone compound extracted from a plant.

[1] = system: human cancer cell lines (MCF-7, MDA-MB-231, Hep G2, Hep 3B, A549); conditions: compound derived from Thelypteris torresiana; Planta Medica 71:867-870, 2005; cited from earlier work

COC1(c2cc(=O)c3c(C)cccc3o2)C=CC(=O)C=C1 [Compound 10b, 1′-methoxy-5-methylprotoflavonone]
IC50 HepG2 (HepG2): 7.64 µg/mL (≈ 27.1 µM)
IC50 Hep3B (Hep3B): 0.66 µg/mL (≈ 2.34 µM)
IC50 MDA-MB-231 (MDA-MB-231): 0.54 µg/mL (≈ 1.91 µM)
IC50 MCF-7 (MCF-7): 1.55 µg/mL (≈ 5.49 µM)
IC50 A549 (A549): 16.36 µg/mL (≈ 58 µM)

O=C1C=CC(O)(c2cc(=O)c3ccccc3o2)C=C1 [Compound 8a, 2-(1-hydroxy-4-oxocyclohexa-2,5-dienyl)-4H-chromen-4-one]
cytotoxic activity against cancer cell lines (in words) (human cancer cell lines): significant cytotoxic activity

COc1cc(O)c2c(=O)cc(C3(O)C=CC(=O)C=C3)oc2c1 [Compound 18a, 5-hydroxy-2-(1-hydroxy-4-oxocyclohexa-2,5-dienyl)-7-methoxy-4H-chromen-4-one]
activity against the HepG2 human liver cancer cell line (in words) (HepG2; compared with most analogs): significantly enhanced activity
cytotoxic activity against cancer cell lines (in words) (human cancer cell lines): significant cytotoxic activity
potency against all five cancer cell lines, among the derivatives (in words) (human cancer cell lines; five cancer cell lines): highest potency

COC1(c2cc(=O)c3ccccc3o2)C=CC(=O)C=C1 [Compound 8b, 1′-methoxyprotoflavonoen]
IC50 HepG2 (HepG2): 10.95 µg/mL (≈ 40.8 µM)
IC50 Hep3B (Hep3B): 1.45 µg/mL (≈ 5.41 µM)
IC50 MDA-MB-231 (MDA-MB-231): 1.47 µg/mL (≈ 5.48 µM)
IC50 MCF-7 (MCF-7): 2.14 µg/mL (≈ 7.98 µM)
IC50 A549 (A549): >20 µg/mL

O=C1C=CC(O)(c2cc(=O)c3c(O)cc(O)cc3o2)C=C1 [protoapigenone]
cytotoxic activities to human cancer cell lines (in words) [1]: strong cytotoxic activities

O=C1C=CC(O)(c2cc(=O)c3c(ccc4ccccc43)o2)C=C1 [Compound 15a, 3-(1-hydroxy-4-oxocyclohexa-2,5-dienyl)-1H-benzo[f]chromen-1-one]
cytotoxic activity against cancer cell lines (in words) (human cancer cell lines): significant cytotoxic activity

O=C1C=CC(O)(c2cc(=O)c3c(O)cccc3o2)C=C1 [Compound 10a, 2-(1-hydroxy-4-oxocyclohexa-2,5-dienyl)-5-hydroxy-4H-chromen-4-one]
cytotoxic activity against cancer cell lines (in words) (human cancer cell lines): significant cytotoxic activity
